Measurements reported in ChEMBL document CHEMBL1201862, “PubChem BioAssay data set” (2004).
Calls of active or inactive are those of the source.

Legend:
INS1 = assay: beta cell apoptosis inhibitors, cytokine rescue, dose response, luminescence, retest (AID 449756); assay type: functional, cell-based; conditions: Rattus norvegicus;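 further: cell death triggered by IL-1 beta plus TNF-alpha plus IFN-gamma mixture; protective hits raise ATP signal compared with cytokine alone wells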
[1] = system: Streptococcus sp. 'group A'; assay: growth inhibition of control SK(-) GAS strain, dose response, counter-screen for streptokinase expression inhibitor project, luminescence, kanamycin, BacTiterGlo, confirmation (AID 1900); assay type: functional, organism-based
Streptokinase A = molecular target: T1, Streptokinase A (Streptococcus pyogenes serotype M1, UniProt P10520); assay: S. pyogenes streptokinase expression inhibitors, potency, dose response, plasminogen activation absorbance, OD405 (AID 1914); assay type: functional, Streptococcus pyogenes M1 GAS;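 further: secreted streptokinase activity via plasminogen activation per viability signal from cell pellet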
T1 sequence (P10520 whole entry): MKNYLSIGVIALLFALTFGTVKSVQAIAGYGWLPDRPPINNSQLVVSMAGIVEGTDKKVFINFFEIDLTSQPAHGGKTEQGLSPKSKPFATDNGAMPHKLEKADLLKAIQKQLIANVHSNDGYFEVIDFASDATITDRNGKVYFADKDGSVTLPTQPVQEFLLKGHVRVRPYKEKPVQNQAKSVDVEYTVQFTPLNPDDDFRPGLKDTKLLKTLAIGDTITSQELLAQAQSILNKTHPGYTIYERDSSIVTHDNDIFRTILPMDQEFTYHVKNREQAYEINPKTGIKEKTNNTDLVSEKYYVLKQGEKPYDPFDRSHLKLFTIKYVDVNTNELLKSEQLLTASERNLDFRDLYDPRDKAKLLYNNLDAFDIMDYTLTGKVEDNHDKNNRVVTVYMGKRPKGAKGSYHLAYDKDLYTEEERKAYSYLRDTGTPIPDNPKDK

Streptococcus = assay: Group A Streptococcus viability loss, dose response, counter-screen for streptokinase expression inhibitor project, luminescence, BacTiterGlo (AID 1915); assay type: functional, organism-based;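 further: potency for reduction of bacterial viability or growth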
Cytochrome P450 2C19 = Cytochrome P450 2C19 (Homo sapiens, UniProt P33261); assay: Cytochrome panel assay with activity outcomes. Panel member name: p450-cyp2c19 Compounds with AC50 equal or less than 10 uM are considered active; assay type: functional; conditions: read-out: AC50
Cytochrome P450 3A4 = Cytochrome P450 3A4 (Homo sapiens, UniProt P08684);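 further: CYP3A4 tested as one member of a cytochrome P450 panel screen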
Cytochrome P450 2C9 = Cytochrome P450 2C9 (Homo sapiens, UniProt P11712)
[2] = C. albicans growth with fluconazole, confirmation, fluorescence, retest (AID 2467); assay type: functional, cell-based
[3] = NIH-3T3 fibroblast cytotoxicity, dose response, cytotoxicity control, cell-based, fluorescence, Alamar Blue, secondary assay (AID 2327); assay type: functional;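 further: NIH-3T3 mouse fibroblasts cultured with fluconazole at 8 µg/mL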
[4] = inhibitors of firefly luciferase expression or activity, dose response, H4 neuroglioma cells, luminescence (AID 1990); assay type: functional, cell-based
[5] = inhibitors of SNCA 5'UTR-driven reporter translation, confirmation, H4 neuroglioma cells, luminescence (AID 1988); assay type: functional, cell-based
[6] = Luminescence Cell-Based Dose Response HTS to Identify Inhibitors of 5'UTR Stem-Loop Driven Prion Protein mRNA Translation in H4 Neuroglioblastoma Cells. [Related pubchem assays: 1827 (Project Summary), 1813 (Primary HTS)]; assay type: functional
[7] = P. falciparum Dd2 growth inhibitors, dose response, SYBR Green, cherry-picked samples (AID 1159567); assay type: functional, cell-based
[8] = molecular target: T2, Heat shock factor protein 1 (Mus musculus, UniProt P38532); assay: inhibition of MG132-induced HSE-luciferase signal, confirmation, cell-based, NIH3T3, luminescence, dose retest (AID 2382); assay type: functional;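 further: NIH3T3 fibroblasts with HSF1-driven luciferase reporter stressed by proteasome inhibitor MG132; luminescence from HSF1-driven luciferase expression after 8 hours of MG132 stress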
T2 sequence (P38532 whole entry): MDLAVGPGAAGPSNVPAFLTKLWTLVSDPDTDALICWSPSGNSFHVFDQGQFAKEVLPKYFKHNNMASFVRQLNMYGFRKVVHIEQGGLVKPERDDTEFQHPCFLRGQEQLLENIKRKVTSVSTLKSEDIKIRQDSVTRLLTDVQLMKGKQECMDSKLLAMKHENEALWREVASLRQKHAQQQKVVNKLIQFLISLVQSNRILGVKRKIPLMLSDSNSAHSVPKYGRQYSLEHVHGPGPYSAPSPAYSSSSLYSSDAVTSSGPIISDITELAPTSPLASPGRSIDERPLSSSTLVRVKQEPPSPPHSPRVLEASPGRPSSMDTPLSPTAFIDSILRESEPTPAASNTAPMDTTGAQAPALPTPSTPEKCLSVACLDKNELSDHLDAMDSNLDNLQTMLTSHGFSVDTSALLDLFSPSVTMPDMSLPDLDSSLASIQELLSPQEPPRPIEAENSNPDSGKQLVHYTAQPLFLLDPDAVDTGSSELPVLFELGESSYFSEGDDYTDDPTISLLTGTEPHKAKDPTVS

[9] = inhibitors of intracellular T. cruzi replication, confirmation, NIH3T3 host cells, beta-gal luminescence (AID 2044); assay type: functional, cell-based;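 further: intracellular parasites grown in NIH/3T3 mouse fibroblasts as host cells; luminescent beta-galactosidase reporter signal from transgenic T. cruzi replicating inside host cells; inhibitors lower the luminescence signal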
[10] = cytotoxicity toward NIH3T3 fibroblasts, dose response, counter-screen, cell-based, ATP luminescence, mouse fibroblasts (AID 2010); assay type: functional;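 further: cells exposed to compound for about 90 hours before reading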
[11] = molecular target: T3, Corticotropin-releasing factor receptor 2/Corticotropin-releasing factor-binding protein (Homo sapiens, UniProt P24387+Q13324); assay: activators of CRF receptor 2 with binding protein – uHTS hits, confirmation (AID 602473); assay type: functional; conditions: read-out: EC50_Mean
T3 sequence (Q13324 whole entry): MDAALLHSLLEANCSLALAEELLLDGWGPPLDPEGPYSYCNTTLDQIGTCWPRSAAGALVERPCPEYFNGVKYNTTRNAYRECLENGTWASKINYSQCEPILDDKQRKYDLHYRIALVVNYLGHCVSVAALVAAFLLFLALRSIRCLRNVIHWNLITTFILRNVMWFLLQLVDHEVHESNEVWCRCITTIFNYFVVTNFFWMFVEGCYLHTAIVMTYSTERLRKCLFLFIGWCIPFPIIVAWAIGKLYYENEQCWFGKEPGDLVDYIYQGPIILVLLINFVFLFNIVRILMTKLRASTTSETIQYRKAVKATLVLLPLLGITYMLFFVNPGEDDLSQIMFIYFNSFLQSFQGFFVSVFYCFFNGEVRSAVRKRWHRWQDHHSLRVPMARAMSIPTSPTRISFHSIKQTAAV
T3 sequence (P24387 whole entry): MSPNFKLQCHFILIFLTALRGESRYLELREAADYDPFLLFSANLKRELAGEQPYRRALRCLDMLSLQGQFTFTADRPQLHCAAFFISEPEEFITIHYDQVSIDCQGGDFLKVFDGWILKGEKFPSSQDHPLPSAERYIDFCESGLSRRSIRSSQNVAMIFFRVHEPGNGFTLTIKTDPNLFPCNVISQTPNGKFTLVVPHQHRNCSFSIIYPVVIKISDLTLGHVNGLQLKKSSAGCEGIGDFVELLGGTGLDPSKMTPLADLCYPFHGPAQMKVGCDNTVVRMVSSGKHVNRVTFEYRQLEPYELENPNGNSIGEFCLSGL

H9c2 = assay: cells; assay type: functional, cell-based; conditions: Rattus norvegicus, H9c2, Myocardium
Cytochrome P450 1A2 = molecular target: T4, Cytochrome P450 1A2 (Homo sapiens, UniProt P05177);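 further: PubChem cytochrome P450 panel assay, CYP1A2 panel member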
T4 sequence (P05177 whole entry): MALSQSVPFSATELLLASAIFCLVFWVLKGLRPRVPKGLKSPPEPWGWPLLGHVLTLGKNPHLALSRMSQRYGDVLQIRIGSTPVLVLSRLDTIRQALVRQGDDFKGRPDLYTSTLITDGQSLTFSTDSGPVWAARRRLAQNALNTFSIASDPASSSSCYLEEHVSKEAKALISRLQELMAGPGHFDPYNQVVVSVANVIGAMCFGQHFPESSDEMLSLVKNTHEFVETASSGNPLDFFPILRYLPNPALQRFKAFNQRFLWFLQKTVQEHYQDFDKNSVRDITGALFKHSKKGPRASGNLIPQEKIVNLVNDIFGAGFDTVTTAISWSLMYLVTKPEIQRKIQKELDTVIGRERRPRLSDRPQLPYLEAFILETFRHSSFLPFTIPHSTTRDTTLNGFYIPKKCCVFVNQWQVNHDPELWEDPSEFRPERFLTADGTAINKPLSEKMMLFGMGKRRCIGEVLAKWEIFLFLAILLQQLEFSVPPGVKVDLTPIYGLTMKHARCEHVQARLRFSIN
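Wherever IC50 is given: confirmatory concentration-response retest of ultra-high-throughput screening hits for modulation of myocardial damage; cell death induced by hydrogen peroxide oxidative stress; compound pretreatment for 60 min then peroxide exposure for 2 h; potency is for protecting the cells against peroxide damage rather than for killing them.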

Sequence of Cytochrome P450 2C9 (P11712 whole entry): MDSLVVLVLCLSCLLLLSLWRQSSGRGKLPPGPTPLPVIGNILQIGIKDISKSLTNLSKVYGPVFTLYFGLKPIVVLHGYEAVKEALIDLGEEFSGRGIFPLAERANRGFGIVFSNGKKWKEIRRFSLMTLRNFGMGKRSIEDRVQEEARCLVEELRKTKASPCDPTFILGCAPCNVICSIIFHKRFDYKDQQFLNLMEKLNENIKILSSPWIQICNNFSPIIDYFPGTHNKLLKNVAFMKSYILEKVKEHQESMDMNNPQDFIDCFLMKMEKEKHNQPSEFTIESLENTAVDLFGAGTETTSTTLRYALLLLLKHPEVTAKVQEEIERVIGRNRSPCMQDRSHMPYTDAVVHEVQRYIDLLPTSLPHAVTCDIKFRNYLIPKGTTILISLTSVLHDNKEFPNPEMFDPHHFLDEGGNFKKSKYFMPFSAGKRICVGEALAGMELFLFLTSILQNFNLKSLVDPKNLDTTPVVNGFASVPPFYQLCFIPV
Sequence of Cytochrome P450 3A4 (P08684 whole entry): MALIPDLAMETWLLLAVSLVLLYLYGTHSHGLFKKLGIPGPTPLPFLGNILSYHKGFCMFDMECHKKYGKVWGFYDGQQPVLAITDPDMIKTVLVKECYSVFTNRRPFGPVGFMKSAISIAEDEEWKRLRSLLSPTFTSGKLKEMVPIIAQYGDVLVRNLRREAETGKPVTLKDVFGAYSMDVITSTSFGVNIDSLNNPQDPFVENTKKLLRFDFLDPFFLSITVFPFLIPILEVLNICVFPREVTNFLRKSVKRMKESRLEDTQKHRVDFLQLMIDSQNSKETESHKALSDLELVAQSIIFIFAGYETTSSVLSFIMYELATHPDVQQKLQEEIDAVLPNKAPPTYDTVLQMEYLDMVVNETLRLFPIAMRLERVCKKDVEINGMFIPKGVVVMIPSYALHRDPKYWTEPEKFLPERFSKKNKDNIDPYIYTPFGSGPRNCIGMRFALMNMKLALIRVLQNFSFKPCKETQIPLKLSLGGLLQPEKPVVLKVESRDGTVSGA
Sequence of Cytochrome P450 2C19 (P33261 whole entry): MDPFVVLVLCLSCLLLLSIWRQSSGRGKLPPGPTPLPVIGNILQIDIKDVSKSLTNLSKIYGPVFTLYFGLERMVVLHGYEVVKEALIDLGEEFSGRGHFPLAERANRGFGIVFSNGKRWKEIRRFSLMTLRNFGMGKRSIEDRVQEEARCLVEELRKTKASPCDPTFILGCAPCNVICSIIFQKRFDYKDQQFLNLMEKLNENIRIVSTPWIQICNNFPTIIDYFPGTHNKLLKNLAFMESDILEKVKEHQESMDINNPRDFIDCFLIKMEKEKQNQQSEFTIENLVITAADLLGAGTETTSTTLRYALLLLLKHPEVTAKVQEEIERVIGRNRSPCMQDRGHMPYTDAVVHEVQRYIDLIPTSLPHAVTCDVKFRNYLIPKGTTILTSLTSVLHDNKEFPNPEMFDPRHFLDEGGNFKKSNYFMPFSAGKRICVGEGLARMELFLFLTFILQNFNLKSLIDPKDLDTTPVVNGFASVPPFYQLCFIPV

## CCN(CC)c1ccc(/C=N/NC(=S)NCc2ccccc2)c(O)c1
INS1
  AC50: 0.712 µM (active)
[1]
  EC50: 49.2 µM (active)
Streptokinase A
  EC50: > 150 µM (not active)
Streptococcus
  EC50: > 150 µM (not active)

## O=C1C2C3C=CC([C@@H]2C(=O)N1C1CCCCC1)[C@H]1C(=O)N(C2CCCCC2)C(=O)C31 (stereo partly drawn)
Cytochrome P450 2C19
  AC50: 17.8 µM (inconclusive)
Cytochrome P450 3A4
  AC50: 3.55 µM (inconclusive)
Cytochrome P450 2C9
  AC50: 6.31 µM (inconclusive)

## Cc1nnsc1-c1onc(C)c1C(=O)Nc1cc(Cl)cc(Cl)c1
INS1
  AC50: 12.8 µM (active)

## CC(=O)Nc1cccc(NC(=O)Nc2cccc(F)c2)c1
[2]
  EC50: 3.22 µM (active)
[3]
  EC50: > 150 µM (inactive)

## Cc1ccsc1C(=O)OCC(=O)Nc1sccc1C(N)=O
[2]
  EC50: 5.44 µM (active)
[3]
  EC50: > 150 µM (inactive)

## COc1ccc(-c2oc3ncn(CCN4CCOCC4)c(=N)c3c2-c2ccc(OC)cc2)cc1
[4]
  EC50: 8.99 µM (active)
[5]
  EC50: 14.5 µM (active)
[6]
  EC50: 19.6 µM (active)

## CC(=O)NC/C(C)=N\Nc1ccc([N+](=O)[O-])cc1
[3]
  EC50: 33.9 µM (active)

## CCOc1cc(CNc2ccc3c(c2)OCCO3)cc(Br)c1OC
[4]
  EC50: > 60 µM (inconclusive)
[6]
  EC50: 10.7 µM (active)

## CN(C)c1oc(-c2ccccc2Cl)nc1C#N
[4]
  EC50: > 120 µM (not active)
[5]
  EC50: 33.3 µM (active)
[6]
  EC50: 19.6 µM (active)

## CC(C)n1c(=O)c2c(=O)cc(O)oc2c2ccccc21
Cytochrome P450 2C19
  AC50: 10 µM (inconclusive)
Cytochrome P450 3A4
  AC50: 2.51 µM (inconclusive)
[1]
  EC50: 27.8 µM (active)
Streptokinase A
  EC50: > 150 µM (not active)
Streptococcus
  EC50: > 150 µM (not active)

## CCCCSc1nc(C)cc(C)c1S(=O)(=O)c1ccccc1C
Cytochrome P450 3A4
  AC50: 28.2 µM (inconclusive)
Cytochrome P450 2C9
  AC50: 10 µM (inconclusive)

## Cc1noc(C)c1S(=O)(=O)N(C)C[C@H]1OCc2ccccc2-c2c(n(C)c3ccccc23)C(=O)N([C@@H](C)CO)C[C@H]1C
[7]
  AC50: 4.65 µM (active)

## CC1(C)CC(=O)C(CCC(=O)c2ccccc2)C(C)(C)N1 (stereo not drawn)
[8]
  EC50: > 195 µM (not active)
Cytochrome P450 2C19
  AC50: 28.2 µM (inconclusive)
Cytochrome P450 3A4
  AC50: 12.6 µM (inconclusive)

## CCS(=O)(=O)N1CCCCN2[C@H](CO)[C@H](c3ccc(-c4cccc(C#N)c4)cc3)[C@H]2C1
[7]
  AC50: 7.45 µM (active)

## O=C(NCc1cccnc1)C(=O)Nc1nc(C23CC4CC(CC(C4)C2)C3)cs1
INS1
  AC50: 35.3 µM (active)

## Oc1c(Cl)c(Cl)c(Cl)c(Cl)c1Cl [PENTACHLOROPHENOL]
[2]
  EC50: 0.657 µM (active)
[3]
  EC50: 75.3 µM (inconclusive)

## Cc1ccc(NC(=O)c2cc(S(=O)(=O)NCCC3=CCCCC3)ccc2F)cc1
INS1
  AC50: 2.96 µM (active)

## CC(C)[C@@H](C(=O)N1CCCC1)N1C(=O)N2CCc3c([nH]c4ccccc34)[C@@]2(C)C1=O
[4]
  EC50: > 120 µM (not active)
[5]
  EC50: > 120 µM (not active)
[6]
  EC50: > 120 µM (not active)

## CCCn1c(=O)c2[nH]c(-c3ccccc3)nc2n(CCC)c1=O
Cytochrome P450 2C19
  AC50: 10 µM (inconclusive)
Cytochrome P450 3A4
  AC50: 2.51 µM (inconclusive)
Cytochrome P450 2C9
  AC50: 1.58 µM (inconclusive)

## Brc1ccc(/C=C/C=N/Nc2nc3ccccc3s2)cc1
Cytochrome P450 2C9
  AC50: 7.08 µM (inconclusive)
[3]
  EC50: 89.4 µM (inconclusive)

## Cc1nc(NCCc2ccc(S(N)(=O)=O)cc2)c2c(C)c(C)sc2n1
INS1
  AC50: 5.52 µM (active)

## COc1ccc(CNC(=O)c2coc(=O)c3ccccc23)c(OC)c1
[4]
  EC50: > 120 µM (not active)
[5]
  EC50: > 120 µM (not active)
[6]
  EC50: > 120 µM (not active)

## CCOC(=O)c1s/c(=N\C(=O)c2ccco2)n(C)c1C
[2]
  EC50: 9.57 µM (active)
[3]
  EC50: > 150 µM (inactive)

## N#Cc1c(N2CCCCC2)nc(N2CCCCC2)c2c1CCN(Cc1ccccc1)C2
INS1
  AC50: 12.7 µM (active)
[9]
  EC50: 0.505 µM (active)
[10]
  EC50: > 30 µM (not active)

## NNC(=O)c1cc(-c2cccs2)nc2ccccc12
[2]
  EC50: > 38 µM (not active)
[3]
  EC50: > 150 µM (inactive)

## C=CCSc1nnc(C)c(/C=C/Nc2ccc(Cl)cc2)n1
[11]
  EC50: 4.77 µM (active)

## COc1ccc(CNc2nc(-c3ccc(C(=O)N(C)C)cc3)nc3ccccc23)c(OC)c1
Cytochrome P450 3A4
  AC50: 3.98 µM (inconclusive)
Cytochrome P450 2C9
  AC50: 1 µM (inconclusive)

## COc1ccc(CC(=O)N/N=C(\C)c2ccccn2)cc1
[4]
  EC50: 10.9 µM (active)
[5]
  EC50: 9.41 µM (active)
[6]
  EC50: 9.61 µM (active)
H9c2
  IC50: > 79 µM (inactive)

## COc1cccc(CNC(=O)c2cc3c(c(-c4cccc(-c5ccncc5)c4)n2)[C@H](CCO)N([S@@+]([O-])C(C)(C)C)C3)c1
[7]
  AC50: 4.29 µM (active)

## CCOC(=O)N1CCN(C(=O)c2cnc3ccc(S(=O)(=O)N(C)c4cccc(C)c4)cc3c2O)CC1
[11]
  EC50: 3.84 µM (active)

## CN(C)c1ccc(C(c2ccc(N(C)C)cc2)c2ccc([N+](=O)[O-])cc2)cc1
Cytochrome P450 1A2
  AC50: 3.16 µM (inconclusive)
Cytochrome P450 3A4
  AC50: 2 µM (inconclusive)

## C[C@H](CO)N1C[C@H](C)[C@H](CN(C)C(=O)NC2CCCCC2)OCc2ccccc2-c2c(n(C)c3ccccc23)C1=O
[7]
  AC50: 5.57 µM (active)
